Assay [1] relates to glycerol oxidase II. The assay can be described thus: Substrate specificity, relative activity by 4-AA method. Format: biochemical, Penicillium sp. KY 868. The settings on record: for Relative activity: substrate equimolar to glycerol, activity on glycerol defined as 100, 4-AA method. On the procedure:
The relative activity is measured using other substrates in equimolar amounts to that of glycerol in the procedure for measuring the activity according to 4-AA method.
The relative activities on other substrates are given in Table 3, the activity on glycerol being defined as 100.
The enzyme activity is expressed by "unit." A "unit" of the enzyme activity is defined as that amount of enzyme which will decompose 1 μ mole of glycerol at 37° C. in 1 minute in the presence of oxygen. The determination of the enzyme activity is carried out as follows: glycerol is reacted with glycerol oxidase II with stirring to form hydrogen peroxide, and 4-aminoantipyrine and phenol are reacted with the resulting hydrogen peroxide in the presence of peroxidase to derive quinoneimine pigment. The optical density in the visible portion of the resulting quinoneimine pigment is measured to determine the amount of generated hydrogen peroxide, whereby the enzyme activity is determined (which will be hereinafter referred to as "4-AA method").
The reagents (1)-(6) are mixed in a test tube, and then shaken at 37° C. for 5 minutes. Then, enzyme solution is added thereto, and thus obtained mixture is made up to 3 ml with TES buffer solution. Reaction is carried out at 37° C. for 10 minutes with shaking. On the other hand, similar procedure is repeated using water in place of the test solution as a reference. The optical density of the reaction solution at 500 nm is measured, and a difference from the control is determined as ΔOD (optical density).

The subject of assay [2] is glycerol oxidase II. As to the kind of experiment: Inhibitors of enzyme: activity with 1 mM inhibitor, oxygen consumption rate by Warburg's manometer. The format is biochemical, Penicillium sp. KY 868. As to conditions: activity with no inhibitor defined as 100, from oxygen consumption rate. On the procedure: Enzymes activities obtained by adding 1 mM of various inhibitors are shown in Table 1, the activity of the enzyme with no addition of the inhibitor being defined as 100. The activities are calculated from consumption rate of oxygen used in reaction measured by Warburg's manometer.

The subject of assay [3] is glycerol oxidase II. The assay can be described thus: Substrate affinity: Michaelis constant against glycerol. The format is biochemical, Penicillium sp. KY 868. As to conditions: glycerol oxidase II of the genus Penicillium. The text has this:
*Determination of Michaelis constant is described in the following reference. H. Lineweaver and D. Burk, J. Amer. Chem. Soc., 56, 658 (1934).

Assay [4] concerns glycerol oxidase I. The settings on record: glycerol oxidase I of Neurospora crassa (U.S. application Ser. No. 897,695); cited from earlier work.
The subject of assay [5] is glycerol oxidase I. The settings on record: glycerol oxidase I of Aspergillus japonicus (U.S. application Ser. No. 897,695); cited from earlier work.

Like-named read-outs stand apart in the source and are kept apart here.

`CC(O)CO` (stereo not shown) [1,2-Propanediol] had a Relative activity with glycerol oxidase II [1] of 11.

In turn, `CC(O)CCO` (stereo not shown) [1,3-Butanediol] gave a Relative activity in the assay on glycerol oxidase II [1] of 11.

In the assay with glycerol oxidase II [1], `OCCCO` [1,3-Propanediol] gave a Relative activity of 23.

For the compound `OCCCCO` [1,4-Butanediol], the Relative activity with glycerol oxidase II [1] worked out at 11.

As to `CC(O)C(C)O` (stereo not shown) [2,3-Butanediol], the Relative activity in the assay with glycerol oxidase II [1] is 16.

Turning to `O=[N+]([O-])[O-].[Ag+]` [AgNO3], in the assay on glycerol oxidase II [2], the “Relative rate (%)” value was 0%.

For `CCN(CC)C(=S)S` [Diethyl dithiocarbamate], in the assay on glycerol oxidase II [2], the “Relative rate (%)” value was determined as 0%.

Turning to `O=C(CO)CO` [Dihydroxyacetone], in the assay with glycerol oxidase II [1], the “Substrate specificity (in words)” value is “reacts specifically” and the Relative activity worked out at 293.

On to `O=C(O)CN(CCN(CC(=O)O)CC(=O)O)CC(=O)O` [EDTA], for which, in the assay with glycerol oxidase II [2], the “Relative rate (%)” value came out at 82.8%.

On to `CCO` [Ethanol], for which the Relative activity in the assay on glycerol oxidase II [1] amounted to 11.

For `O=S(=O)([O-])[O-].[Fe+2]` [FeSO4], the “Relative rate (%)” value in the assay on glycerol oxidase II [2] came out at 0%.

The compound `O=P(O)(O)OCC(O)CO` (stereo not shown) [Glycerol-3-phosphoric acid] returned a Relative activity in the assay on glycerol oxidase II [1] of 12.

`OCC(O)CO` [Glycerol]: the Km in the assay with glycerol oxidase II [3] was 8 mM; with glycerol oxidase I [4] it was 19 mM; in the assay on glycerol oxidase I [5] it was 18.5 mM. For the same compound, the “Substrate specificity (in words)” value with glycerol oxidase II [1] is reported as “reacts specifically”. In the assay with glycerol oxidase II [1], the Relative activity is on record as 100.

For the compound `[Cl][Hg][Cl]` [HgCl2], in the assay with glycerol oxidase II [2], the “Relative rate (%)” value is given as 79.0%.

As to `NO` [NH2 OH], the “Relative rate (%)” value in the assay on glycerol oxidase II [2] was found to be 0%.

Turning to `Cc1ccc2ccc3ccc(C)nc3c2n1` [Neocuproine], the “Relative rate (%)” value with glycerol oxidase II [2] is given as 80.3%.

As for `CC(=O)[O-].CC(=O)[O-].[Pb+2]` [Pb(CH3 COO)2], the “Relative rate (%)” value in the assay with glycerol oxidase II [2] is listed as 26.3%.

In the case of `[Cl-].[Cl-].[Zn+2]` [ZnCl2], the “Relative rate (%)” value in the assay with glycerol oxidase II [2] is given as 84.3%.

For the compound `CC(C)CO` [iso-Butyl alcohol], the Relative activity with glycerol oxidase II [1] worked out at 14.

In the assay on glycerol oxidase II [1], `CC(C)O` [iso-Propyl alcohol] yielded a Relative activity of 23.

Consider `CCCCO` [n-Butyl alcohol], for which, in the assay on glycerol oxidase II [1], the Relative activity turned out to be 7.

As to `CCCO` [n-Propyl alcohol], the Relative activity in the assay with glycerol oxidase II [1] was 11.

As to `c1cnc2c(c1)ccc1cccnc12` [o-Phenanthroline], the “Relative rate (%)” value in the assay with glycerol oxidase II [2] amounted to 65.5%.

As to `O=C(O)c1cc[c]([Hg][Cl])cc1` [p-Chloromercuri benzoate], in the assay on glycerol oxidase II [2], the “Relative rate (%)” value is 81.4%.

Compound `CCC(C)O` (stereo not shown) [sec-Butyl alcohol] displayed a Relative activity with glycerol oxidase II [1] of 9.

As to `c1ccc(-c2ccccn2)nc1` [α,α'-Dipyridyl], the “Relative rate (%)” value with glycerol oxidase II [2] was determined as 75.7%.

As usually defined, the Km is the substrate concentration at which the rate is half of its maximum.
